Values joined by “and” are separate entries in the source; they are usually repeats but may differ in a detail not shown here. Equal entries are not always repeated. “Also recorded” adds a separate entry of the source. Where two headings read alike, the source gives them in different places.
How the values were obtained:
[1] = system: A. parasiticus NRRL2999 strain; assay type: cell-based, Aspergillus parasiticus
[2] = system: A. parasiticus NRRL2999 strain
[3] = system: A. flavus MAFF111229 strain
[4] = system: A. flavus IFM47798 strain; assay: Fungal growth (dry fungal weight) in liquid culture, Test Example 1; assay type: cell-based, Aspergillus flavus
[5] = system: A. flavus MAFF111229 strain; assay type: cell-based, Aspergillus flavus
[6] = system: A. flavus MAFF111229 strain; assay type: cell-based, Aspergillus flavus; conditions: untreated control = 100, mean ± SD, n = 4
[7] = system: A. flavus IFM47798 strain; assay type: cell-based, Aspergillus flavus; conditions: for Total AF Relative Value (%): 48 h, 28° C., untreated control = 100, mean ± SD, n = 4
[8] = alcohol 0.3 v/v %, 48 h, 28° C., untreated control = 100, mean ± SD, n = 4
[9] = alcohol 0.6 v/v %, 48 h, 28° C., untreated control = 100, mean ± SD, n = 4
[10] = alcohol 1 v/v %, 48 h, 28° C., untreated control = 100, mean ± SD, n = 4
[11] = alcohol 2 v/v %, 48 h, 28° C., untreated control = 100, mean ± SD, n = 4
[12] = alcohol 4 v/v %, 48 h, 28° C., untreated control = 100, mean ± SD, n = 4

| Structure (SMILES) | Fungal Weight Relative Value (%) [2] | Fungal Weight Relative Value (%) [3] | Fungal Weight Relative Value (%) [4] | Fungal Weight Relative Value (%) [4, 8] | Fungal Weight Relative Value (%) [4, 9] | Fungal Weight Relative Value (%) [4, 10] | Fungal Weight Relative Value (%) [4, 11] | Fungal Weight Relative Value (%) [4, 12] | Total AF Relative Value (%) ([7]; alcohol 0.3 v/v %) | Total AF Relative Value (%) ([7]; alcohol 0.6 v/v %) | Total AF Relative Value (%) ([7]; alcohol 1 v/v %) | Total AF Relative Value (%) ([7]; alcohol 2 v/v %) | Total AF Relative Value (%) ([7]; alcohol 4 v/v %) | amount of aflatoxins produced [7] | further results |
| --- | --- | --- | --- | --- | --- | --- | --- | --- | --- | --- | --- | --- | --- | --- | --- |
| CCCO [1-Propanol] | 87.4 ± 1.8% and 86.4 ± 2.8% | 104.5 ± 6.5% and 103.9 ± 8.8% | 102.9 ± 12.0% and 118.1 ± 5.4% |  |  |  |  |  |  |  |  |  |  |  | Total AF Relative Value (%) [1]: 58.7 ± 9.5 % and 47.5 ± 6.5 % |
| CO [Methanol] | 93.3 ± 11.2% and 92.0 ± 6.9% and 100.0 ± 8.5% and 102.1 ± 1.6% and 102.9 ± 3.7% | 123.6 ± 6.8% and 123.6 ± 10.4% and 112.8 ± 10.4% and 98.0 ± 4.6% and 101.4 ± 3.5% |  | 103.7 ± 3.5% | 110.1 ± 6.7% | 128.4 ± 3.0% | 145.9 ± 11.4% | 103.7 ± 3.5% | 70.6 ± 12.1 % | 63.4 ± 12.7 % | 0.0 ± 0.0 % | 0.0 ± 0.0 % | 0.0 ± 0.0 % |  | Total AF Relative Value (%) ([5]; corn kernels sprayed with alcohol 20 μL per 1 g of kernels, 28° C., one week, positive control = 100, mean ± SD, n = 3): 1.0 ± 1.3 %; Total AF Relative Value (%) ([1]; alcohol 0.3 v/v %, untreated control = 100, mean ± SD, n = 4): 86.3 ± 3.6 %; Total AF Relative Value (%) ([1]; alcohol 0.6 v/v %, untreated control = 100, mean ± SD, n = 4): 72.3 ± 1.9 %; Total AF Relative Value (%) ([1]; alcohol 1 v/v %, untreated control = 100, mean ± SD, n = 4): 31.1 ± 1.4 %; Total AF Relative Value (%) ([1]; alcohol 2 v/v %, untreated control = 100, mean ± SD, n = 4): 10.3 ± 1.3 %; Total AF Relative Value (%) ([1]; alcohol 4 v/v %, untreated control = 100, mean ± SD, n = 4): 3.4 ± 0.8 %; Total AF Relative Value (%) ([6]; alcohol 0.3 v/v %): 108.5 ± 5.8%; Total AF Relative Value (%) ([6]; alcohol 0.6 v/v %): 102.3 ± 5.0%; Total AF Relative Value (%) ([6]; alcohol 1 v/v %): 13.8 ± 0.8 %; Total AF Relative Value (%) ([6]; alcohol 2 v/v %): 0.0 ± 0.0 %; Total AF Relative Value (%) ([6]; alcohol 4 v/v %): 0.0 ± 0.0 % |
| CC(C)O [2-Propanol] |  |  |  | 126.2 ± 6.4% | 128.0 ± 11.6% | 103.7 ± 7.7% | 94.4 ± 8.3% | 0.0 ± 0.0% |  |  |  |  |  | increase the amount of aflatoxins produced; also recorded: same tendencies as in the case of ethanol |  |
| CCO [Ethanol] |  |  |  |  |  |  |  |  | 197.1 ± 25.9 % | 244.5 ± 13.2 % | 222.4 ± 20.9 % | 24.3 ± 10.5 % | 0.0 ± 0.0 % | increase the amount of aflatoxins produced; also recorded: conversely increased | growth of A. flavus [4]: not inhibited; growth of A. flavus ([4]; concentration of 4 v/v % or higher): the growth of A. flavus was inhibited; aflatoxin production [7]: the aflatoxin production was accordingly inhibited |
| CCC(C)O (stereo not drawn) [2-Butanol] |  | 56.2 ± 7.3% and 48.9 ± 8.7% | 66.1 ± 5.4% and 70.2 ± 4.2% |  |  |  |  |  |  |  |  |  |  |  | Total AF Relative Value (%) [5]: 0.0 ± 0.0 % |
| CC(C)(C)O [2-Methyl-2-Propanol] |  |  |  | 104.8 ± 7.9% | 101.0 ± 4.8% | 51.9 ± 15.5% | 0.0 ± 0.0% | 0.0 ± 0.0% |  |  |  |  |  | increase the amount of aflatoxins produced; also recorded: same tendencies as in the case of ethanol |  |
